In brackets after ≈: the same amount, converted by molar mass. Read-outs that look alike come from different tables or passages of the source.
Tested on: Spodoptera littoralis larvae (second and fourth instars)
Assay: Insecticidal bioassay screening (castor leaf dip), laboratory strain of cotton leafworm
Assay type: in vivo
Conditions: for LC90 (mg/L) at 95%: after 72 hrs of treatment; for Toxicity index %: after 72 hrs, reference LC50/compound LC50 x 100; for LC50: Spodoptera littoralis, foliar
Procedure: Five concentrations (200, 100, 50, 25, 12.5 ppm) were designed for this synthetic compound and the reference Diflubenzuron compound as the dynamic ingredients based on ppm via diluting the commercial formulation.
In this experiment, castor leaves are immersed in each of the previously prepared concentrations of the components for 10 seconds and then left to dry for 60 minutes. Larvae of the second and fourth instars of each checked strain are prepared with treated leaves in gauze-covered glass containers for 72 hrs. An untreated control is made in which leaves are dipped in triton x-100 and distilled water only. Then the preserved leaves were removed & fresh, untreated leaves were provided for 72 hours. Three replicates (10 larvae each) were checked for each concentration. Daily inspection was carried out for all treatments and mortality percentages were recorded 3 days (72 hours) after treatment. The average mortality percentage was corrected employing Abbott's formula. The corrected mortality rate for each of the previously synthesized compounds is statistically calculated according to Finney (1970). Through this rate, the corresponding concentration test lines (LDP lines) are assessed.

[1] = 72 h, read-out: LC50 (mg/L) at 95%, 2nd instar larvae, after 72 hrs of treatment
[2] = 72 h, read-out: LC50 (mg/L) at 95%, 4th instar larvae, after 72 hrs of treatment
[3] = against Spodoptera littoralis under laboratory conditions (instar not stated)

Row | SMILES | LC90 (mg/L) at 95% (2nd instar larvae) [mg/L] | Toxicity index % (2nd instar larvae) [%] | LC90 (mg/L) at 95% (4th instar larvae) [mg/L] | Toxicity index % (4th instar larvae) [%] | LC50 [1] [mg/L] | LC50 [2] [mg/L] | LC50 [3] [mg/L] | Insecticidal activity (in words) (compared with reference insecticide Diflubenzuron)
1 | O=C(NC(=S)Nc1ccccc1NC(=S)NC(=O)c1ccco1)c1ccco1 [Compound 2, N-[(2-{[(furan-ylcarbonyl)carbamothioyl]amino}phenyl)carbamothioyl]furan-2-carboxamide] | 7450.5 (≈ 18000 µM) | 10.6 | 1837.2 (≈ 4430 µM) | 14.7 | 424 (≈ 1020 µM) | 976 (≈ 2350 µM) | 424 (≈ 1020 µM) | active against Spodoptera littoralis
2 | O=C(NC(=O)c1c(F)cccc1F)Nc1ccc(Cl)cc1 [Diflubenzuron, reference compound] | 520.0 (≈ 1670 µM) | 100 | 1540.5 (≈ 4960 µM) | 100 | 45.2 (≈ 145 µM) | 144 (≈ 464 µM) | 45.2 (≈ 145 µM) | –

Source: patent US11985975B1, “N-[(2-{[(furan-ylcarbonyl)carbamothioyl]amino }phenyl)carbamothioyl]furan-2-carboxamide as an eco-friendly insecticidal agent against Spodoptera littoralis (boisd.)” (KING FAISAL UNIVERSITY, priority 2023, dated 2024)
